The target of assay [1] is SARS-CoV-2 3CLpro (Severe acute respiratory syndrome coronavirus 2, UniProt P0DTD1). The experiment in a line: biochemical. Conditions: inhibition of SARS-CoV-2 3CLpro; 15 nM 3CLpro, 25 μM fluorogenic substrate, 37° C.; read-out: Inhibitory Activity (IC50).
For assay [2], the system named is SARS-CoV-2. The assay can be described thus: Anti-SARS-CoV-2 activity in A549 cells expressing the human ACE2 receptor (inhibition of SARS-CoV-2 replication). Conditions: read-out: Antiviral Activity (EC50). The format is cell-based.
Setting [3] is: Severe acute respiratory syndrome coronavirus 2, A549-ACE2, 24 h.

pEC50, pIC50: −log10 of the molar value. Like-named read-outs stand apart in the source and are kept apart here.

What is called pIC50 is the IC50 on a negative log10 scale, so that one unit is a factor of ten. The term pEC50 denotes the EC50 on a negative log10 scale, so that one unit is a factor of ten. With `CNC(=O)c1cc(Br)cc([N+](=O)[O-])c1NC(C(C)C)C1CN(C(=O)c2cncc3ccccc23)C1` (stereo in doubt) [Compound 12, (S)-5-bromo-2-((1-(1-(isoquinoline-4-carbonyl)azetidin-3-yl)-2-methylpropyl)amino)-N-methyl-3-nitrobenzamide], the negative logarithm of the IC50 (pIC50) in assay [1] is more than 7.00. In addition, the pEC50 in assay [2] (setting [3]) is more than 7.00. For the molecule `O=C(NC1CCOC1)c1cc(Cl)cc([N+](=O)[O-])c1N[C@H]1CN(C(=O)c2cncc3ccccc23)CCC1(F)F` (stereo in doubt) [Compound 159, 5-chloro-2-(((S)-4,4-difluoro-1-(isoquinoline-4-carbonyl)piperidin-3-yl)amino)-3-nitro-N-((S)-tetrahydrofuran-3-yl)benzamide], the negative-log EC50 (pEC50) in assay [2] (inhibition of SARS-CoV-2 replication in mammalian cells, A549-ACE2 cells, 24 hours infection) was more than 7.00. As for `CNC(=O)c1cc(Br)cc([N+](=O)[O-])c1N[C@@H]1CCCC[C@@H]1NC(=O)c1cccnc1` [Compound 1, N-((1S, 2R)-2-((4-bromo-2-(methylcarbamoyl)-6-nitrophenyl)amino)cyclohexyl)nicotinamide], the pIC50 in assay [1] is 6.00 to 7.00. Also, the pEC50 in assay [2] (setting [3]) is 5.00 to 6.00. `O=C(N[C@@H]1CCNC1)c1cc(Br)cc([N+](=O)[O-])c1N[C@H]1CN(C(=O)c2cncc3ccccc23)CC1(F)F` [Compound 150]: the pIC50 in assay [1] was more than 7.00. On the same count and under the same terms, to `CC1(NC(=O)c2cc(Cl)cc([N+](=O)[O-])c2N[C@H]2CN(C(=O)c3cncc4ccccc34)CCC2(F)F)CC1` [Compound 152, (S)-5-chloro-2-((4,4-difluoro-1-(isoquinoline-4-carbonyl)piperidin-3-yl)amino)-N-(1-methylcyclopropyl)-3-nitrobenzamide] belongs more than 7.00.

For the molecule `O=C(O)c1cc(Br)cc([N+](=O)[O-])c1N[C@H]1CN(C(=O)c2cncc3ccccc23)CCC1(F)F` [Compound 153, (S)-5-bromo-2-((4,4-difluoro-1-(isoquinoline-4-carbonyl)piperidin-3-yl)amino)-3-nitrobenzoic acid], the pIC50 in assay [1] is 6.00 to 7.00. Take `O=C(N[C@@H]1CCNC1)c1cc(Br)cc(C(F)(F)F)c1N[C@H]1CN(C(=O)c2cncc3ccccc23)CCC1(F)F` [Compound 160, 5-bromo-2-[[(3S)-4,4-difluoro-1-(isoquinoline-4-carbonyl)-3-piperidyl]amino]-N-[(3R)-pyrrolidin-3-yl]-3-(trifluoromethyl)benzamide]: the negative logarithm of the IC50 (pIC50) in assay [1] is more than 7.00.

Take `CN(C)C(=O)c1cc(Br)cc([N+](=O)[O-])c1N[C@H]1CN(C(=O)c2cncc3ccccc23)CC1(F)F` [Compound 161, (S)-5-bromo-2-((4,4-difluoro-1-(isoquinoline-4-carbonyl)pyrrolidin-3-yl)amino)-N, N-dimethyl-3-nitrobenzamide]: the pIC50 in assay [1] was more than 7.00. Turning to `O=C(c1cc(Br)cc([N+](=O)[O-])c1N[C@H]1CN(C(=O)c2cncc3ccccc23)CC1(F)F)N1CC(F)(F)C1` [Compound 162, (S)-(5-bromo-2-((4,4-difluoro-1-(isoquinoline-4-carbonyl)pyrrolidin-3-yl)amino)-3-nitrophenyl)(3,3-difluoroazetidin-1-yl)methanone], the pIC50 in assay [1] is more than 7.00. As for `O=C(N[C@@H]1CCOC1)c1cc(Br)cc([N+](=O)[O-])c1N[C@H]1CN(C(=O)c2cncc3ccccc23)CC1(F)F` [Compound 163, 5-bromo-2-(((S)-4,4-difluoro-1-(isoquinoline-4-carbonyl)pyrrolidin-3-yl)amino)-3-nitro-N-((R)-tetrahydrofuran-3-yl)benzamide], in assay [1], the pIC50 was more than 7.00. Still for that read-out and setting: with `O=C(N[C@H]1CCOC1)c1cc(Br)cc(C(F)(F)F)c1N[C@H]1CN(C(=O)c2cncc3ccccc23)CCC1(F)F` [Compound 164, 5-bromo-2-(((S)-4,4-difluoro-1-(isoquinoline-4-carbonyl)piperidin-3-yl)amino)-N-((S)-tetrahydrofuran-3-yl)-3-(trifluoromethyl)benzamide] the figure was more than 7.00; with `O=C(N[C@H]1CCOC1)c1cc(Cl)cc(C(F)(F)F)c1N[C@H]1CN(C(=O)c2cncc3ccccc23)CCC1(F)F` [Compound 165, 5-chloro-2-(((S)-4,4-difluoro-1-(isoquinoline-4-carbonyl)piperidin-3-yl)amino)-N-((S)-tetrahydrofuran-3-yl)-3-(trifluoromethyl)benzamide], more than 7.00; with `CNC(=O)c1cc(Br)cc([N+](=O)[O-])c1N[C@H]1CN(C(=O)c2cncc3ccccc23)C[C@H]1F` [Compound 166, 5-bromo-2-[[(3S,4R)-4-fluoro-1-(isoquinoline-4-carbonyl)pyrrolidin-3-yl]amino]-N-methyl-3-nitro-benzamide], more than 7.00.

With `CNC(=O)c1cc(Br)cc(C(F)(F)F)c1N[C@H]1CN(C(=O)c2cncc3cccnc23)CCC1(F)F` [Compound 167, (S)-5-bromo-2-((4,4-difluoro-1-(1,6-naphthyridine-8-carbonyl)piperidin-3-yl)amino)-N-methyl-3-(trifluoromethyl)benzamide], the pIC50 in assay [1] is more than 7.00. `CNC(=O)c1cc(Cl)cc([N+](=O)[O-])c1N[C@H]1CN(C(=O)c2cncc3cc(O)ccc23)CCC1(F)F` [Compound 168, (S)-5-chloro-2-((4,4-difluoro-1-(7-hydroxyisoquinoline-4-carbonyl)piperidin-3-yl)amino)-N-methyl-3-nitrobenzamide]: the pIC50 in assay [1] was more than 7.00. As to `CNC(=O)c1cc(Cl)cc([N+](=O)[O-])c1N[C@H]1CN(C(=O)c2cncc(Cl)c2C)CCC1(F)F` [Compound 169, (S)-5-chloro-2-((1-(5-chloro-4-methylnicotinoyl)-4,4-difluoropiperidin-3-yl)amino)-N-methyl-3-nitrobenzamide], the pIC50 in assay [1] is more than 7.00. Still for that read-out and setting: to `CNC(=O)c1cc(Cl)cc([N+](=O)[O-])c1N[C@H]1CN(C(=O)c2cncc3ccncc23)CC[C@@H]1F` [Compound 171, 5-chloro-2-(((3S, 4S)-4-fluoro-1-(2,6-naphthyridine-4 - carbonyl)piperidin-3-yl)amino)-N-methyl-3-nitrobenzamide] belongs more than 7.00. As to `COC1CN(C(=O)c2cc(Br)cc(C(F)(F)F)c2N[C@H]2CN(C(=O)c3cncc4ccccc34)CCC2(F)F)C1` [Compound 172, (S)-(5-bromo-2-((4,4-difluoro-1-(isoquinoline-4-carbonyl)piperidin-3-yl)amino)-3-(trifluoromethyl)phenyl)(3-methoxyazetidin-1-yl)methanone], the pIC50 in assay [1] is more than 7.00. With `O=C(c1cc(Br)cc(C(F)(F)F)c1N[C@H]1CN(C(=O)c2cncc3ccccc23)CCC1(F)F)N1CC(O)C1` [Compound 173, (S)-(5-bromo-2-((4,4-difluoro-1-(isoquinoline-4-carbonyl)piperidin-3-yl)amino)-3-(trifluoromethyl)phenyl)(3-hydroxyazetidin-1-yl)methanone], the pIC50 in assay [1] is more than 7.00.

Consider `CNC(=O)c1cc(Cl)cc([N+](=O)[O-])c1N[C@H]1CN(C(=O)c2cncc3cccc(O)c23)CCC1(F)F` [Compound 174, (S)-5-chloro-2-((4,4-difluoro-1-(5-hydroxyisoquinoline-4-carbonyl)piperidin-3-yl)amino)-N-methyl-3-nitrobenzamide], for which the pIC50 in assay [1] was more than 7.00. Consider `CNC(=O)c1cc(Cl)cc([N+](=O)[O-])c1N[C@H]1CN(C(=O)c2cncc3cnccc23)CCC1(F)F` [Compound 175, (S)-5-chloro-2-((4,4-difluoro-1-(2,7-naphthyridine-4-carbonyl)piperidin-3-yl)amino)-N-methyl-3-nitrobenzamide], for which the negative logarithm of the IC50 (pIC50) in assay [1] was more than 7.00. `CNC(=O)c1cc(Cl)cc([N+](=O)[O-])c1N[C@H]1CN(C(=O)c2cncc3ncccc23)CCC1(F)F` [Compound 176, (S)-5-chloro-2-((4,4-difluoro-1-(1,7-naphthyridine-5-carbonyl)piperidin-3-yl)amino)-N-methyl-3-nitrobenzamide]: in assay [1], the pIC50 is more than 7.00. Still for that read-out and setting: with `CN(C)C(=O)c1cc(Cl)cc([N+](=O)[O-])c1N[C@H]1CN(C(=O)c2cncc3ccccc23)CC[C@@H]1F` [Compound 177] the figure was more than 7.00; with `CNC(=O)c1cc(Cl)cc([N+](=O)[O-])c1N[C@H]1CN(C(=O)c2cncc3ccn(C)c23)CC[C@@H]1F` [Compound 178, 5-chloro-2-(((3S, 4S)-4-fluoro-1-(1-methyl-1H-pyrrolo[3,2-c]pyridine-7-carbonyl)piperidin-3-yl)amino)-N-methyl-3-nitrobenzamide], more than 7.00; with `CNC(=O)c1cc(Br)cc([N+](=O)[O-])c1O[C@@H]1CN(C(=O)c2cncc3ccccc23)CCC1(F)F` [Compound 179, (R)-5-bromo-2-((4,4-difluoro-1-(isoquinoline-4-carbonyl)piperidin-3-yl)oxy)-N-methyl-3-nitrobenzamide], 6.00 to 7.00. With `CNC(=O)c1cc(Br)cc([N+](=O)[O-])c1O[C@H]1CN(C(=O)c2cncc3ccccc23)CCC1(F)F` [Compound 180, (S)-5-bromo-2-((4,4-difluoro-1-(isoquinoline-4-carbonyl)piperidin-3-yl)oxy)-N-methyl-3-nitrobenzamide], the pIC50 in assay [1] was not above 5.00. On to `CNC(=O)c1cc(Br)cc(C(F)(F)F)c1N[C@H]1CN(C(=O)c2cncc3ccccc23)CC[C@H]1F` [Compound 181, 5-bromo-2-(((3S,4R)-4-fluoro-1-(isoquinoline-4-carbonyl)piperidin-3-yl)amino)-N-methyl-3-(trifluoromethyl)benzamide], for which the pIC50 in assay [1] is more than 7.00. Regarding `O=C(N[C@@H]1CCOC1)c1cc(Br)cc(C(F)(F)F)c1N[C@H]1CN(C(=O)c2cncc3ccccc23)CCC1(F)F` [Compound 182, 5-bromo-2-(((S)-4,4-difluoro-1-(isoquinoline-4-carbonyl)piperidin-3-yl)amino)-N-((R)-tetrahydrofuran-3-yl)-3-(trifluoromethyl)benzamide], in assay [1], the pIC50 is more than 7.00.

Regarding `CNC(=O)c1cc(Br)cc(C(F)(F)F)c1N[C@H]1CN(C(=O)c2cncc3ccccc23)CC[C@@H]1F` [Compound 183, 5-bromo-2-(((3S, 4S)-4-fluoro-1-(isoquinoline-4-carbonyl)piperidin-3-yl)amino)-N-methyl-3-(trifluoromethyl)benzamide], the pIC50 in assay [1] is more than 7.00.

Source of the values: patent US20260315452A1, “PROTEASE INHIBITORS AND USES THEREOF” (priority 2023, published 2026).
